Structures are written as SMILES.

The target of assay [1] is Protein cereblon/Histone acetyltransferase p300 (Homo sapiens) (UniProt Q09472+Q96SW2). In words: Protac activity at E3 ubiquitin ligase/P300 in human LNcaP cells assessed as degradation of P300 at 10 nM by immunoblotting analysis relative to control. Type of assay: cell-based. A general note: Immunoblotting shows a protein as a band on a membrane.
Assay [2] deals with LNCaP. Briefly: Antiproliferative activity against human LNCaP cells assessed as reduction in cell viability by CellTitre-Glo assay. The format is functional, cell-based.

Sequence of Protein cereblon/Histone acetyltransferase p300 (Homo sapiens) (Q09472 2-2414 limits assumed): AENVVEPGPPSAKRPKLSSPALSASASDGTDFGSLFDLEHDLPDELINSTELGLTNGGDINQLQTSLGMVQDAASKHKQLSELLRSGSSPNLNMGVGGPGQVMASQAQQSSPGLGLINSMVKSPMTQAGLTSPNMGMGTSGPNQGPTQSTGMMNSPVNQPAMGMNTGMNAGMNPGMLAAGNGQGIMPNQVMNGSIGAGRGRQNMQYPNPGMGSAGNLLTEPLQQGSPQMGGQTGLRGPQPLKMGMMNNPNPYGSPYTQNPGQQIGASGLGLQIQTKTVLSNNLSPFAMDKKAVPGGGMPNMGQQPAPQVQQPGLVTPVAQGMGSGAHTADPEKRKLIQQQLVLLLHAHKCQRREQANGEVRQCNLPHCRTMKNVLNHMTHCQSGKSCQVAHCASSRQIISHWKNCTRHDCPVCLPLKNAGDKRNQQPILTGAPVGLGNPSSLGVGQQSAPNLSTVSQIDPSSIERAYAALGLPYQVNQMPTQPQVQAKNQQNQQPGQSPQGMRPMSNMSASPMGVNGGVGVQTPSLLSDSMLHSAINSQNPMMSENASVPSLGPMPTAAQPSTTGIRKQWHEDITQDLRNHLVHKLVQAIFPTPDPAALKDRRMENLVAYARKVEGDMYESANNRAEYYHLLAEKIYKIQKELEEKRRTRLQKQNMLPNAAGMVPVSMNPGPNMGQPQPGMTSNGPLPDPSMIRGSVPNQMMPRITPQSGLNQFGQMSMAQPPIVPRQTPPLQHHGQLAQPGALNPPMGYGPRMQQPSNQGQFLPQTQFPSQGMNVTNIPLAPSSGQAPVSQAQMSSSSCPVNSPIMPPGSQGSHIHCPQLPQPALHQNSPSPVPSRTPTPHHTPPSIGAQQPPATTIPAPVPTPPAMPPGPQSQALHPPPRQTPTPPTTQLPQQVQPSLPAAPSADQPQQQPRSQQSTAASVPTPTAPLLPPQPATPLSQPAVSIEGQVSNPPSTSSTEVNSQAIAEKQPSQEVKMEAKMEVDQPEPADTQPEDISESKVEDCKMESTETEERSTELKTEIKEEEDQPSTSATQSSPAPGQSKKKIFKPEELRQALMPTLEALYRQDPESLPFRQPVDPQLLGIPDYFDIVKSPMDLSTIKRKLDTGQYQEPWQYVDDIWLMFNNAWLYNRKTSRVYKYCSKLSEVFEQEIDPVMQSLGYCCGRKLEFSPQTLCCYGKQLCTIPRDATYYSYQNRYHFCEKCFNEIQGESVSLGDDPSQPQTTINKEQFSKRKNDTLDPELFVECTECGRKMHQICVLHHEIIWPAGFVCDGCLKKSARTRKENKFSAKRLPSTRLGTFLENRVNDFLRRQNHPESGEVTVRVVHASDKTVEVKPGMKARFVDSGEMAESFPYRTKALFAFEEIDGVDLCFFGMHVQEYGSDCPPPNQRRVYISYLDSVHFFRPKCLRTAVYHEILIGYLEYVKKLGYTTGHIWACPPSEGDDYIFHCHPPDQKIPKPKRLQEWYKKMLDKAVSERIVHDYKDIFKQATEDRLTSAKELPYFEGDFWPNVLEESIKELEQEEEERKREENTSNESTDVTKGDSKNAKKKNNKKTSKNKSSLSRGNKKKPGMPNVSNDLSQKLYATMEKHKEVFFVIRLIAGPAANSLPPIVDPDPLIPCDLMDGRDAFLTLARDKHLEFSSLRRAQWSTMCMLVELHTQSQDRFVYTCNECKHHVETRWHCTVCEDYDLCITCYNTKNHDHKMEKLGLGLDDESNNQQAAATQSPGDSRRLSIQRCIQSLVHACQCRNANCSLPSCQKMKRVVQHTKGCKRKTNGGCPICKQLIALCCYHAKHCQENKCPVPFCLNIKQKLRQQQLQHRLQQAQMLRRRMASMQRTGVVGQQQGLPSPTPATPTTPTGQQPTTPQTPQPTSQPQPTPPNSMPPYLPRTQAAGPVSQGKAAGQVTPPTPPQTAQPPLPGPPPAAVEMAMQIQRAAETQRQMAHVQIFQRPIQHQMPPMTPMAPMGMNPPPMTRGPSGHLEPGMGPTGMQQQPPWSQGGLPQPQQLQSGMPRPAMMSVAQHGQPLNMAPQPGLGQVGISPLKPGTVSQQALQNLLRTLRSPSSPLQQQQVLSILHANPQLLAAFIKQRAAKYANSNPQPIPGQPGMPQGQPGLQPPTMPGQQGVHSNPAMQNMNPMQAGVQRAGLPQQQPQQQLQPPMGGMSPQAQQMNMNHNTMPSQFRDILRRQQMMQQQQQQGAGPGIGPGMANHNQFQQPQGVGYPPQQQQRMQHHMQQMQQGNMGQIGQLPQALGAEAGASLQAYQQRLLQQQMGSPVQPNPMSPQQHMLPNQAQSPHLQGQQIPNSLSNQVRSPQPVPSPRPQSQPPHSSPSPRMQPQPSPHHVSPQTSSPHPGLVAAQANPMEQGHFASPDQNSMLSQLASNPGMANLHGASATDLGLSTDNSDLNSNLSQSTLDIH
Sequence of Protein cereblon/Histone acetyltransferase p300 (Homo sapiens) (Q96SW2 whole entry partner): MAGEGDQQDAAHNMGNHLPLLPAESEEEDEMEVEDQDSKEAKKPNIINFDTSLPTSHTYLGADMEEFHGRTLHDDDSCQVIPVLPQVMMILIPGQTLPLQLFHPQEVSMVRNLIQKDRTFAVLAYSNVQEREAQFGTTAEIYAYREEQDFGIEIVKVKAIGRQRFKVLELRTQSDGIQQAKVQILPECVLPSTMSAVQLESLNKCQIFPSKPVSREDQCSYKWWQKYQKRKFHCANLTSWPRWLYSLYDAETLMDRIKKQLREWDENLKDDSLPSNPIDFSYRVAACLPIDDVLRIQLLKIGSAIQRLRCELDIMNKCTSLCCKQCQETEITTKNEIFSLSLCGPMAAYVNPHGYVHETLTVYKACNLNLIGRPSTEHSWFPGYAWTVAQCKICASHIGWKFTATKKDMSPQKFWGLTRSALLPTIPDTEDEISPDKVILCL

In the case of `CNC(=O)N1CCc2c(c(N3CCCc4cc(-c5cnn(C)c5)c(C(F)F)cc43)nn2C2CCN(C(=O)CCCCCNc3cccc4c3C(=O)N(C3CCC(=O)NC3=O)C4=O)CC2)C1` (centres undefined), the Activity in assay [1] is over 80%. In assay [2], the IC50 (in general, the concentration needed to halve the response being measured) was 0.4 nM.

Take `CC(=O)N1CCc2c(c(N3CCCc4cc(-c5cnn(C)c5)c(C(F)F)cc43)nn2C2CCN(C(=O)CCCCCNc3cccc4c3C(=O)N(C3CCC(=O)NC3=O)C4=O)CC2)C1` (centres undefined): the Activity in assay [1] is under 50%. Further, the IC50 in assay [2] is 44.5 nM.

As to `CNC(=O)N1CCc2c(c(N3CCCc4cc(-c5cnn(C)c5)c(C(F)F)cc43)nn2C2CCN(C(=O)CCCCCCCNc3cccc4c3C(=O)N(C3CCC(=O)NC3=O)C4=O)CC2)C1` (centres undefined), the Activity in assay [1] is over 80%. Moreover, the IC50 in assay [2] turned out to be 0.8 nM.

As to `CC(=O)N1CCc2c(c(N3CCCc4cc(-c5cnn(C)c5)c(C(F)F)cc43)nn2C2CCN(CCCC3CCN(c4cccc5c4C(=O)N(C4CCC(=O)NC4=O)C5=O)CC3)CC2)C1` (centres undefined), the Activity in assay [1] is over 80%. Besides, the IC50 in assay [2] was 0.8 nM.

In the case of `CC(=O)N1CCc2c(c(N3CCCc4cc(-c5cnn(C)c5)c(C(F)F)cc43)nn2C2CCN(CCN3CCC(CCc4ccc5c(c4)n(C)c(=O)n5C4CCC(=O)NC4=O)CC3)CC2)C1` (centres undefined), in assay [1], the Activity was over 80%. In assay [2], the IC50 was 0.3 nM.

Take `CC(=O)N1CCc2c(c(N3CCCc4cc(-c5cnn(C)c5)c(C(F)F)cc43)nn2C2CCN(C(=O)CCCCCCCNc3cccc4c3C(=O)N(C3CCC(=O)NC3=O)C4=O)CC2)C1` (centres undefined): the Activity in assay [1] is over 80%. Also, in assay [2], the IC50 was found to be 0.7 nM.

On to `CC(=O)N1CCc2c(c(N3CCCc4cc(-c5cnn(C)c5)c(C(F)F)cc43)nn2C2CCN(CCN3CCOC(CNc4cccc5c4C(=O)N(C4CCC(=O)NC4=O)C5=O)C3)CC2)C1` (centres undefined), for which, in assay [1], the Activity is over 80%. The IC50 in assay [2] turned out to be 0.1 nM.

As to `CC(=O)N1CCc2c(c(N3CCCc4cc(-c5cnn(C)c5)c(C(F)F)cc43)nn2C2CCN(C(=O)CCCN3CCN(Cc4ccc5c(c4)n(C)c(=O)n5C4CCC(=O)NC4=O)CC3)CC2)C1` (centres undefined), in assay [1], the Activity is over 80%. Besides, in assay [2], the half-maximal inhibitory concentration (IC50) came to 0.3 nM.

As for `CC(=O)N1CCc2c(c(N3CCCc4cc(-c5cnn(C)c5)c(C(F)F)cc43)nn2C2CCN(C(=O)CN3CCC(CCc4cccc5c4n(C)c(=O)n5C4CCC(=O)NC4=O)CC3)CC2)C1` (centres undefined), the Activity in assay [1] is under 20%. In addition, the IC50 in assay [2] was found to be 33.1 nM.

As to `CC(=O)N1CCc2c(c(N3CCCc4cc(-c5cnn(C)c5)c(C(F)F)cc43)nn2C2CCN(CCN3CCN(C#Cc4ccc5c(c4)n(C)c(=O)n5C4CCC(=O)NC4=O)CC3)CC2)C1` (centres undefined), in assay [1], the Activity was over 80%. Further, in assay [2], the IC50 came to 0.1 nM.

With `CC(=O)N1CCc2c(c(N3CCCc4cc(-c5cnn(C)c5)c(C(F)F)cc43)nn2C2CCN(CCN3CCC(CCc4cccc5c4n(C)c(=O)n5C4CCC(=O)NC4=O)CC3)CC2)C1` (centres undefined), the Activity in assay [1] is over 80%. Besides, the IC50 in assay [2] came out at 0.1 nM.

Turning to `CNC(=O)N1CCc2c(c(N3CCCc4cc(-c5cnn(C)c5)c(C(F)F)cc43)nn2C2CCN(C(=O)CCCCCn3c(=O)n(C4CCC(=O)NC4=O)c4ccccc43)CC2)C1` (centres undefined), in assay [1], the Activity is over 80%. In assay [2], the IC50 is 0.9 nM.
